Data published in patent publication US11708423B2, “Chimeric engulfment receptor molecules and methods of use” (CERO THERAPEUTICS, INC., priority 2017, dated 2023).

Experiments:
[1] = test system: dexamethasone pre-treated thymocytes; assay: Phagocytosis of thymocytes by CER Ba/F3 cells in presence or absence of Racl inhibitor; format: cell-based
[2] = test system: HCC159 lung adenocarcinoma cells; assay: Tim4-IgG1 Fc staining for phosphatidylserine exposure after EGFR inhibitor treatment; format: cell-based; conditions: 12 hours, increasing concentrations 50 nM and higher
Description: HCC159 lung adenocarcinoma cells harbor an EGFR mutation and are sensitive to EGFR inhibition.

| Compound | effect of Racl inhibitor on phagocytosis by CER21-transduced Ba/F3 cells ([1]; 6 hour co-culture, FACS) | effect of Racl inhibition on CER116 mediated phagocytosis ([1]; Ba/F3 cells, fluorescent micrographs) | surface staining with Tim4-IgG1 Fc fusion protein (phosphatidylserine exposure) [2] |
| --- | --- | --- | --- |
| CCN(CC)CCCC(C)Nc1nc(C)cc(Nc2ccc3nc(C)cc(N)c3c2)n1 (stereo not shown) [NSC23766] | abolishes phagocytosis | abolishes CER116 mediated phagocytosis of thymocytes | – |
| C#Cc1cccc(Nc2ncnc3cc(OCCOC)c(OCCOC)cc23)c1 [Erlotinib] | – | – | enhanced surface staining with Tim4-IgG1 Fc fusion protein |
| C=CC(=O)Nc1cc(Nc2nccc(-c3cn(C)c4ccccc34)n2)c(OC)cc1N(C)CCN(C)C [Osimeritinib] | – | – | enhanced surface staining with Tim4-IgG1 Fc fusion protein |
